Marks after values point to notes of the source that are not given here.
Key:
MES-SA/B1 cells = experiment: MTT viability assay, MES-SA/B1; format: cell-based, human; settings: for IC50: Homo sapiens, MES-SA, 72 h, MTT 72 h
Description: (§1) MDCK II canine kidney cells, A431 epidermoid carcinoma cells, the human uterine sarcoma cell lines MES-SA and the doxorubicin selected MES-SA-Dx5 were obtained from ATCC (MDCK II: No. CRL-2936™, A431: No. CRL-1555™, MES-SA: No. CRL-1976™, MES-SA/Dx5: No. CRL-1977™). ABCB1 was expressed in A431 and MES-SA cells using lentiviral transduction. The human cervix carcinoma cell line KB-3-1 and the vinblastine selected KB-v1were kind gifts from Dr. Michael M. Gottesman, National Institutes of Health. The phenotype of the resistant cells was verified using cytotoxicity assays. MDCK-B1 and MDCK-MM were established by the Sleeping Beauty transposon-based gene delivery system. OVCAR-8 and NCI-ADRres cells (obtained from the Division of Cancer Treatment and Diagnosis (DCTD) Tumor Repository (National Cancer Institute, Frederick, MD, USA)) were cultivated in RPMI-1640 (Sigma Aldrich, Budapest, Hungary), and other cell lines were cultivated in Dulbecco’s Modified Eagle Medium (DMEM, Sigma Aldrich, Budapest, Hungary), supplemented with 10% fetal bovine serum, 5 mM glutamine, and 50 unit/mL penicillin and streptomycin (Life Technologies, Carlsbad, CA, USA). All cell lines were cultivated at 37 °C, 5% CO2.
(§2) MTT viability assays were performed as described earlier with minor modifications. Briefly, cells were seeded into 96-well tissue culture plates (Sarstedt, Newton, NC, USA/Orange, Braine-l’Alleud, Belgium) at a density of 5000 cells/well and allowed to attach overnight. Test compounds were added to achieve the required final concentration in a final volume of 100 µL per well. After an incubation period of 72 h, the supernatant was removed and fresh medium containing the MTT reagent (0.083 mg/mL) was added. Incubation with MTT at 37 °C was terminated after 1 h by removing the supernatant and lysing the cells with 100 µL DMSO per well. Viability of the cells was measured spectrophotometrically based on the absorbance values at 540 nm using either a Perkin Elmer Victor X3 or an EnSpire microplate reader. Data were background corrected by subtraction of the signal obtained from unstained cell lysates and normalized to untreated cells. Curves were fitted by Prism software (GraphPad Software Inc., San Diego, CA, USA) using the sigmoidal dose-response model (comparing variable and fixed slopes). […] Significance was calculated using unpaired t-tests; results are given as *: p ≤ 0.05, **: p ≤ 0.01, ***: p ≤ 0.001, ****: p ≤ 0.0001.

OVCAR-8 cells = experiment: MTT viability assay, OVCAR-8; format: cell-based; settings: Homo sapiens, OVCAR-8, 72 h, MTT 72 h
Description: as §1, §2

KB-3-1 cells = experiment: MTT viability assay, KB-3-1; format: cell-based; settings: Homo sapiens, KB 3-1, 72 h, MTT 72 h
Description: as §1, §2

KB-v1 cells = experiment: MTT viability assay, KB-v1; format: cell-based; settings: Homo sapiens, KB-V1, 72 h, MTT 72 h
Description: as §1, §2

A431 cells = experiment: MTT viability assay, A431; format: cell-based; settings: Homo sapiens, A-431, 72 h, MTT 72 h
Description: as §1, §2

A431-B1 cells = experiment: MTT viability assay, A431-B1; format: cell-based; settings: 72 h, MTT 72 h
Description: as §1, §2

MDCK cells = experiment: MTT viability assay, MDCK; format: cell-based, canine; settings: Canis lupus familiaris, 72 h, MTT 72 h
Description: as §1, §2

MDCK-B1 cells = experiment: MTT viability assay, MDCK-B1 (wild-type Pgp); format: cell-based, canine; settings: for IC50: Canis lupus familiaris, 72 h, MTT 72 h
Description: as §1, §2

MDCK-MM cells = experiment: MTT viability assay, MDCK-MM (non-functional Pgp); format: cell-based, canine; settings: for IC50: Canis lupus familiaris, 72 h, MTT 72 h; for SR MDCK-MM: IC50 MDCK vs. MDCK-MM
Description: as §1, §2

MES-SA cells = experiment: ROS determination with DCFDA, MES-SA; format: cell-based, human; settings: 2 h
How it was run: (§3)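 Cells loaded with 10 µM DCFDA (3 × 10^6 cells/mL, 37 °C, 30 min), washed, then plated at 2 × 10^4 cells/well in PBS. After basal reading, compounds (6.25–50 µM) added and fluorescence followed every 10 min to 2 h, also with 5 mM NAC; values as fold change versus basal and untreated cells.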

MES-SA/Dx5 cells = experiment: ROS determination with DCFDA, MES-SA/Dx5; format: cell-based, human; settings: 2 h
How it was run: as §3

[1] = set-up: method as in PMID 21275772; settings: T = 25 °C, I = 0.2 M (KCl), cited from earlier work
[2] = presence of 1 µM Tariquidar (values in brackets)

IC50 (OVCAR-8 cells; absence of Tariquidar): 1080 ± 100 nM | IC50 (OVCAR-8 cells; [2]): 1090 nM | IC50 (KB-3-1 cells; absence of Tariquidar): 1750 ± 620 nM | IC50 (KB-3-1 cells; [2]): 2650 nM | IC50 (KB-v1 cells; absence of Tariquidar): 270 ± 120 nM | IC50 (KB-v1 cells; [2]): 2270 nM | IC50 (A431 cells; absence of Tariquidar): 5820 ± 1150 nM | IC50 (A431 cells; [2]): 4540 nM | IC50 (A431-B1 cells; absence of Tariquidar): 2570 ± 560 nM | IC50 (A431-B1 cells; [2]): 7950 nM
Structure (SMILES): Oc1c(CNCc2ccccc2F)cc(Cl)c2cccnc12 [Compound Q-4, 5-chloro-7-((2-fluorobenzylamino)methyl)quinolin-8-ol]
IC50 (MES-SA/B1 cells; absence of Tariquidar): 300 ± 60 nM | IC50 (MES-SA/B1 cells; [2]): 1030 nM | SR MES-SA/B1 (MES-SA/B1 cells; IC50 MES-SA vs. MES-SA/B1, absence of Tariquidar): 9.24 | SR MES-SA/B1 (MES-SA/B1 cells; IC50 MES-SA vs. MES-SA/B1, presence of 1 µM Tariquidar (brackets)): 2.16 | IC50 (MDCK cells; absence of Tariquidar): 4550 ± 1530 nM | IC50 (MDCK cells; [2]): 5920 nM | IC50 (MDCK-B1 cells; absence of Tariquidar): 890 ± 350 nM | IC50 (MDCK-B1 cells; [2]): 6950 nM | SR MDCK-B1 (MDCK-B1 cells; IC50 MDCK vs. MDCK-B1, absence of Tariquidar): 5.13 | SR MDCK-B1 (MDCK-B1 cells; IC50 MDCK vs. MDCK-B1, presence of 1 µM Tariquidar (brackets)): 0.85 | IC50 (MDCK-MM cells; absence of Tariquidar): 5230 ± 2110 nM | IC50 (MDCK-MM cells; [2]): 6270 nM | SR MDCK-MM (MDCK-MM cells; absence of Tariquidar): 0.87 | SR MDCK-MM (MDCK-MM cells; presence of 1 µM Tariquidar (brackets)): 0.94 | Fold change in fluorescence (DCFDA) (MES-SA cells; 6.25 µM): 1.207± 0.20 | Fold change in fluorescence (DCFDA) (MES-SA cells; 6.25 µM, presence of 5 mM NAC (brackets)): 1.030± 0.16 | Fold change in fluorescence (DCFDA) (MES-SA cells; 12.5 µM): 1.190± 0.14 | Fold change in fluorescence (DCFDA) (MES-SA cells; 12.5 µM, presence of 5 mM NAC (brackets)): 1.033± 0.21 | Fold change in fluorescence (DCFDA) (MES-SA cells; 25 µM): 1.187± 0.29 | Fold change in fluorescence (DCFDA) (MES-SA cells; 25 µM, presence of 5 mM NAC (brackets)): 0.985± 0.12 | Fold change in fluorescence (DCFDA) (MES-SA cells; 50 µM): 1.151± 0.19 | Fold change in fluorescence (DCFDA) (MES-SA cells; 50 µM, presence of 5 mM NAC (brackets)): 1.040± 0.17 | Fold change in fluorescence (DCFDA) (MES-SA/Dx5 cells; MES-SA/Dx5, 6.25 µM): 1.238± 0.28 | Fold change in fluorescence (DCFDA) (MES-SA/Dx5 cells; MES-SA/Dx5, 6.25 µM, presence of 5 mM NAC (brackets)): 1.191± 0.07 | Fold change in fluorescence (DCFDA) (MES-SA/Dx5 cells; MES-SA/Dx5, 12.5 µM): 1.396± 0.35 | Fold change in fluorescence (DCFDA) (MES-SA/Dx5 cells; MES-SA/Dx5, 12.5 µM, presence of 5 mM NAC (brackets)): 1.337± 0.26 | Fold change in fluorescence (DCFDA) (MES-SA/Dx5 cells; MES-SA/Dx5, 25 µM): 1.340± 0.26 | Fold change in fluorescence (DCFDA) (MES-SA/Dx5 cells; MES-SA/Dx5, 25 µM, presence of 5 mM NAC (brackets)): 1.320± 0.31 | Fold change in fluorescence (DCFDA) (MES-SA/Dx5 cells; MES-SA/Dx5, 50 µM): 1.286± 0.30 | Fold change in fluorescence (DCFDA) (MES-SA/Dx5 cells; MES-SA/Dx5, 50 µM, presence of 5 mM NAC (brackets)): 1.283± 0.20 | pKa (NquinoliniumH+) [1]: < 2 ^a | pKa (OH) [1]: 5.16 ^a | pKa (additional) ([1]; group named in the cell): 8.54 ^a (NbenzylamineH2^+)

From publication PMC7796460, “Relation of Metal-Binding Property and Selective Toxicity of 8-Hydroxyquinoline Derived Mannich Bases Targeting Multidrug Resistant Cancer Cells” (Cancers, 2021)
